# Experiments:
# Streptococcus sp. = test: in vitro antibacterial evaluation, MIC by broth dilution; assay type: cell-based; conditions: broth dilution, 18 hours at 35° C.
# In short: (§1)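 MIC, the lowest antibiotic concentration preventing growth, was read across 64-0.06 μg/mL with 5×10^5 CFU/mL inoculum. Method followed NCCLS M7-A2 broth dilution using Mueller-Hinton II; Gram-positive strains covered recent methicillin-, penicillin- and/or vancomycin-resistant clinical isolates.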
# Enterococcus sp. = test: as above; assay type: cell-based; conditions: broth dilution, 18 hours at 35° C.
# In short: as §1
# Staphylococcus sp. = test: as above; assay type: cell-based; conditions: broth dilution, 18 hours at 35° C.
# In short: as §1
# Escherichia coli = test: as above; assay type: cell-based; conditions: 18 hours at 35° C.
# In short: as §1
# [1] = test system: Staphylococcus aureus-SMITH (GC 4543); test: acute lethal infection in mice; assay type: in vivo; conditions: acute lethal infection, female CD-1 mice, intraperitoneal challenge, intravenous 30 min. after infection, 7 day survival
# In short: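 Survival at 7 days, pooled from three independent tests, yields ED50 values. Treatment is intravenous, 30 min after ip infection of female CD-1 mice, using an inoculum lethal to untreated controls within 24-48 hr.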
structure (smiles),measurement,setting,value
"COc1cccc(C2OCC3OC(OC4C(CO)OC(Oc5ccc(CC6NC(=O)C(C(C)c7ccccc7)NC(=O)CNC(=O)C(CO)NC(=O)C(C(O)C7CNC(=N)N7C7OC(CO)C(O)C(O)C7O)NC(=O)C(C(O)C7CNC(=N)N7)NC6=O)cc5)C(O)C4O)C(O)C(O)C3O2)c1 (stereo not drawn) [Example 137, Cyclo[glycyl-β-methylphenylalanyl-O-[4-O-[4,6-O-(3-methoxybenzylidene)hexopyranosyl]-hexopyranosyl]tyrosyl-3-(2-iminoimidazolidin-4-yl)seryl-3-(3-hexopyranosyl-2-iminoimidazolidin-4-yl)serylseryl]]",MIC Streptococcus agalactiae (GC 4564),Streptococcus sp.; Streptococcus agalactiae (GC 4564),0.5 µg/mL
same,MIC Streptococcus pneumoniae (ATCC 6301),Streptococcus sp.; Streptococcus pneumoniae (ATCC 6301),0.12 µg/mL
same,MIC Streptococcus pneumoniae (GC 1894),Streptococcus sp.; Streptococcus pneumoniae (GC 1894),<0.06 µg/mL
same,MIC Streptococcus pneumoniae (GC 4565),Streptococcus sp.; Streptococcus pneumoniae (GC 4565),0.25 µg/mL
same,MIC Streptococcus pyogenes (GC 4563),Streptococcus sp.; Streptococcus pyogenes (GC 4563),0.25 µg/mL
same,MIC Streptococcus pneumoniae (ATCC 6301),Streptococcus sp.; strain ATCC 6301,0.12 µg/mL
same,MIC Streptococcus pneumoniae (GC 1894),Streptococcus sp.; strain GC 1894,<0.06 µg/mL
same,MIC Streptococcus pyogenes (GC 4563),Streptococcus sp.; strain GC 4563,0.25 µg/mL
same,MIC Streptococcus agalactiae (GC 4564),Streptococcus sp.; strain GC 4564,0.5 µg/mL
same,MIC Streptococcus pneumoniae (GC 4565),Streptococcus sp.; strain GC 4565,0.25 µg/mL
same,MIC Enterococcus avium (GC 4558),Enterococcus sp.; Enterococcus avium (GC 4558),4 to 8 µg/mL
same,MIC Enterococcus faecalis (ATCC 29212),Enterococcus sp.; Enterococcus faecalis (ATCC 29212),4 to 8 µg/mL
same,MIC Enterococcus faecalis (GC 2242),Enterococcus sp.; Enterococcus faecalis (GC 2242),4 to 8 µg/mL
same,MIC Enterococcus faecalis (GC 2691),Enterococcus sp.; Enterococcus faecalis (GC 2691),4 to 8 µg/mL
same,MIC Enterococcus faecalis (GC 3059),Enterococcus sp.; Enterococcus faecalis (GC 3059),4 to 8 µg/mL
same,MIC Enterococcus faecalis (GC 4552),Enterococcus sp.; Enterococcus faecalis (GC 4552),4 to 8 µg/mL
same,MIC Enterococcus faecalis (GC 4553),Enterococcus sp.; Enterococcus faecalis (GC 4553),4 to 8 µg/mL
same,MIC Enterococcus faecalis (GC 4554),Enterococcus sp.; Enterococcus faecalis (GC 4554),4 to 8 µg/mL
same,MIC Enterococcus faecalis (GC 6189),Enterococcus sp.; Enterococcus faecalis (GC 6189),4 µg/mL
same,MIC Enterococcus faecium (GC 2243),Enterococcus sp.; Enterococcus faecium (GC 2243),4 to 8 µg/mL
same,MIC Enterococcus faecium (GC 4556),Enterococcus sp.; Enterococcus faecium (GC 4556),4 to 8 µg/mL
same,MIC Enterococcus faecium (GC 4557),Enterococcus sp.; Enterococcus faecium (GC 4557),2 to 4 µg/mL
same,MIC Enterococcus faecalis (ATCC 29212),Enterococcus sp.; strain ATCC 29212,4 to 8 µg/mL
same,MIC Enterococcus faecalis (GC 2242),Enterococcus sp.; strain GC 2242,4 to 8 µg/mL
same,MIC Enterococcus faecium (GC 2243),Enterococcus sp.; strain GC 2243,4 to 8 µg/mL
same,MIC Enterococcus faecalis (GC 2691),Enterococcus sp.; strain GC 2691,4 to 8 µg/mL
same,MIC Enterococcus faecalis (GC 3059),Enterococcus sp.; strain GC 3059,4 to 8 µg/mL
same,MIC Enterococcus faecalis (GC 4552),Enterococcus sp.; strain GC 4552,4 to 8 µg/mL
same,MIC Enterococcus faecalis (GC 4553),Enterococcus sp.; strain GC 4553,4 to 8 µg/mL
same,MIC Enterococcus faecalis (GC 4554),Enterococcus sp.; strain GC 4554,4 to 8 µg/mL
same,MIC Enterococcus faecium (GC 4556),Enterococcus sp.; strain GC 4556,4 to 8 µg/mL
same,MIC Enterococcus faecium (GC 4557),Enterococcus sp.; strain GC 4557,2 to 4 µg/mL
same,MIC Enterococcus avium (GC 4558),Enterococcus sp.; strain GC 4558,4 to 8 µg/mL
same,MIC Enterococcus faecalis (GC 6189),Enterococcus sp.; strain GC 6189,4 µg/mL
same,MIC Staphylococcus aureus (ATCC 29213),Staphylococcus sp.,1 to 2 µg/mL
same,MIC Staphylococcus aureus (GC 1131),Staphylococcus sp.,2 µg/mL
same,MIC Staphylococcus aureus (GC 3051),Staphylococcus sp.,1 to 2 µg/mL
same,MIC Staphylococcus aureus (GC 3053),Staphylococcus sp.,2 to 4 µg/mL
same,MIC Staphylococcus aureus (GC 4541),Staphylococcus sp.,1 to 2 µg/mL
same,MIC Staphylococcus aureus (GC 4542),Staphylococcus sp.,1 to 2 µg/mL
same,MIC Staphylococcus aureus (GC 4544),Staphylococcus sp.,2 µg/mL
same,MIC Staphylococcus aureus (GC 4545),Staphylococcus sp.,2 to 4 µg/mL
same,MIC Staphylococcus aureus (GC 1131),"Staphylococcus sp.; inoculum 5×10^5 CFU/mL, strain GC 1131",2 µg/mL
same,MIC Staphylococcus aureus (ATCC 29213),Staphylococcus sp.; strain ATCC 29213,1 to 2 µg/mL
same,MIC Staphylococcus aureus (GC 3051),Staphylococcus sp.; strain GC 3051,1 to 2 µg/mL
same,MIC Staphylococcus aureus (GC 3053),Staphylococcus sp.; strain GC 3053,2 to 4 µg/mL
same,MIC Staphylococcus aureus (GC 4541),Staphylococcus sp.; strain GC 4541,1 to 2 µg/mL
same,MIC Staphylococcus aureus (GC 4542),Staphylococcus sp.; strain GC 4542,1 to 2 µg/mL
same,MIC Staphylococcus aureus-SMITH (GC 4543),Staphylococcus sp.; strain GC 4543,1 to 2 µg/mL
same,MIC Staphylococcus aureus (GC 4544),Staphylococcus sp.; strain GC 4544,2 µg/mL
same,MIC Staphylococcus aureus (GC 4545),Staphylococcus sp.; strain GC 4545,2 to 4 µg/mL
same,MIC Staphylococcus haemolyticus (GC 4546),Staphylococcus sp.; strain GC 4546,1 µg/mL
same,MIC Coagulase Negative Staphylococcus (GC 4547),Staphylococcus sp.; strain GC 4547,1 to 2 µg/mL
same,MIC Coagulase Negative Staphylococcus (GC 4548),Staphylococcus sp.; strain GC 4548,0.5 to 2 µg/mL
same,MIC Coagulase Negative Staphylococcus (GC 4549),Staphylococcus sp.; strain GC 4549,0.5 to 1 µg/mL
same,MIC Coagulase Negative Staphylococcus (GC 4551),Staphylococcus sp.; strain GC 4551,1 to 2 µg/mL
same,MIC Coagulase Negative Staphylococcus (GC 6257),Staphylococcus sp.; strain GC 6257,1 µg/mL
same,MIC Staphylococcus aureus-SMITH (GC 4543),Staphylococcus sp.; strain SMITH GC 4543,1 to 2 µg/mL
same,MIC Escherichia coli (ATCC 25922),Escherichia coli; strain ATCC 25922,64 µg/mL
same,MIC Escherichia coli (GC 4559),Escherichia coli; strain GC 4559,32 to 64 µg/mL
same,MIC Escherichia coli (GC 4560),Escherichia coli; strain GC 4560,1 µg/mL
same,"median effective dose (ED50), Staphylococcus aureus-SMITH (GC 4543)",[1],0.24 mg/kg

# Source: patent publication US6914045B2, “Glycopeptide antibiotics” (Wyeth Holdings Corporation, priority 2001, dated 2005)
